{
  "source": "ChEMBL document CHEMBL1128956",
  "about": "“Irreversible inhibitions of serine proteases by peptidyl allylic halide derivatives” (Bioorg Med Chem Lett, 1996)",
  "key": {"[1]": {"target": "Chymotrypsinogen A (Bos taurus) (UniProt P00766)", "experiment": "Compound was tested for inhibitory activity against alpha-chymotrypsin"}, "[2]": {"target": "Chymotrypsinogen A (Bos taurus) (UniProt P00766)", "experiment": "Compound was tested for inhibitory activity towards alpha-chymotrypsin expressed as second order rate constant values; No inactivation"}, "[3]": {"target": "T1, Chymotrypsin-like elastase family member 2A (Sus scrofa) (UniProt P08419)", "T1 sequence (whole entry)": "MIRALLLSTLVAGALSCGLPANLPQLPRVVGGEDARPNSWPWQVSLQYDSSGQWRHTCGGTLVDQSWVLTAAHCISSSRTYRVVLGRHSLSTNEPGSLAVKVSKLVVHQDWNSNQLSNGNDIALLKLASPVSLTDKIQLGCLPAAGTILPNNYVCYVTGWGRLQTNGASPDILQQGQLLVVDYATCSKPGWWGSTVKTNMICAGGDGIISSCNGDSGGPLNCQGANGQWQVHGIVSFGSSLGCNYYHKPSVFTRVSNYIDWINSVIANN", "experiment": "Compound was tested for inhibitory activity toward porcine pancreatic elastase."}, "[4]": {"target": "Chymotrypsinogen A (Bos taurus) (UniProt P00766)", "experiment": "Compound was tested for inhibitory activity towards alpha-chymotrypsin expressed as second order rate constant values"}, "[5]": {"target": "Chymotrypsinogen A (Bos taurus) (UniProt P00766)", "experiment": "Compound was tested for inhibitory activity against alpha-chymotrypsin"}, "[6]": {"target": "T1, Chymotrypsin-like elastase family member 2A (Sus scrofa)", "experiment": "Compound was tested for inhibitory activity toward porcine pancreatic elastase expressed as second order rate constant values: No inactivation"}, "[7]": {"target": "Chymotrypsinogen A (Bos taurus) (UniProt P00766)", "experiment": "Compound was tested for inhibitory activity towards alpha-chymotrypsin expressed as second order rate constant values"}},
  "data": [
    {"smiles": "O=C(CNC(=O)OCc1ccccc1)N[C@H](/C=C/CF)Cc1ccccc1", "values": [
      {"measurement": "Concentration", "setting": "[1]", "result": 1.05, "unit": "mM"},
      {"measurement": "k obs / concentration", "setting": "[2]", "result": "No inactivation"}
    ]},
    {"smiles": "O=C(CNC(=O)OCc1ccccc1)NCC(=O)N[C@H](/C=C/CCl)Cc1ccccc1", "values": [
      {"measurement": "Concentration", "setting": "[3]", "result": 97, "unit": "µM"},
      {"measurement": "k obs / concentration", "setting": "[4]", "result": 61, "unit": "M⁻¹ s⁻¹"},
      {"measurement": "Concentration", "setting": "[5]", "result": 17, "unit": "µM"},
      {"measurement": "k obs / concentration", "setting": "[6]", "result": "No inactivation"}
    ]},
    {"smiles": "O=C(CNC(=O)OCc1ccccc1)NCC(=O)N[C@H](/C=C/CBr)Cc1ccccc1", "values": [
      {"measurement": "Concentration", "setting": "[3]", "result": 15, "unit": "µM"},
      {"measurement": "k obs / concentration", "setting": "[4]", "result": 1240, "unit": "M⁻¹ s⁻¹"},
      {"measurement": "Concentration", "setting": "[5]", "result": 7, "unit": "µM"},
      {"measurement": "k obs / concentration", "setting": "[6]", "result": "No inactivation"}
    ]},
    {"smiles": "O=C(CNC(=O)OCc1ccccc1)N[C@H](/C=C/CBr)Cc1ccccc1", "values": [
      {"measurement": "Concentration", "setting": "[3]", "result": 25, "unit": "µM"},
      {"measurement": "k obs / concentration", "setting": "[4]", "result": 215, "unit": "M⁻¹ s⁻¹"},
      {"measurement": "Concentration", "setting": "[5]", "result": 25, "unit": "µM"},
      {"measurement": "k obs / concentration", "setting": "[6]", "result": "No inactivation"}
    ]},
    {"smiles": "CC(=O)N[C@H](/C=C/CF)Cc1ccccc1", "values": [
      {"measurement": "Concentration", "setting": "[1]", "result": 13.5, "unit": "mM"},
      {"measurement": "k obs / concentration", "setting": "[2]", "result": "No inactivation"}
    ]},
    {"smiles": "O=C(CNC(=O)OCc1ccccc1)NCC(=O)N[C@H](/C=C/CF)Cc1ccccc1", "values": [
      {"measurement": "Concentration", "setting": "[1]", "result": 4.4, "unit": "mM"},
      {"measurement": "k obs / concentration", "setting": "[2]", "result": "No inactivation"}
    ]},
    {"smiles": "O=C(CNC(=O)OCc1ccccc1)N[C@H](/C=C/CCl)Cc1ccccc1", "values": [
      {"measurement": "Concentration", "setting": "[3]", "result": 600, "unit": "µM"},
      {"measurement": "k obs / concentration", "setting": "[4]", "result": 12, "unit": "M⁻¹ s⁻¹"},
      {"measurement": "Concentration", "setting": "[5]", "result": 28, "unit": "µM"},
      {"measurement": "k obs / concentration", "setting": "[6]", "result": "No inactivation"}
    ]},
    {"smiles": "CC(=O)N[C@H](/C=C/CCl)Cc1ccccc1", "values": [
      {"measurement": "Concentration", "setting": "[1]", "result": 0.476, "unit": "mM"},
      {"measurement": "k obs / concentration", "setting": "[7]", "result": 0.8, "unit": "M⁻¹ s⁻¹"}
    ]},
    {"smiles": "CC(=O)N[C@H](/C=C/CBr)Cc1ccccc1", "values": [
      {"measurement": "Concentration", "setting": "[3]", "result": 101, "unit": "µM"},
      {"measurement": "k obs / concentration", "setting": "[4]", "result": 14, "unit": "M⁻¹ s⁻¹"},
      {"measurement": "Concentration", "setting": "[5]", "result": 101, "unit": "µM"},
      {"measurement": "k obs / concentration", "setting": "[6]", "result": "No inactivation"}
    ]}
  ]
}
